Numbered stars: 1 amine (or outer) side, 2 acyl side, 3 side chain; on linkers, the order of the positions; unused ones are H or OH. Bridge positions count the residues as written; N and C are the ends. Square brackets hold non-standard residues; d marks the D form. Side chains are listed from the residue outwards. Peptide text beside a SMILES is read from it. * marks the point of attachment. C18 diacid = O=C(O)CCCCCCCCCCCCCCCCC(=O)*; γGlu = O=C(O)[C@H](CCC(=O)[*:2])N[*:1]; αMeF = C[C@](N)(Cc1ccccc1)C(=O)O; Aib = CC(C)(N)C(=O)O
Assays:
[1] = Thioflavin T fibrillation assay; format: physicochemical; conditions: 1 mg/mL in 25 mM sodium acetate buffer pH 4.0, 37° C., 6 days, orbital shaking; >144 h = no increase
Procedure, shortened: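 Peptides at 1 mg/mL in 25 mM sodium acetate pH 4.0 were mixed with ThT (0.25 mM stock) and held 6 days at 37 °C with intermittent orbital shaking at 500–750 rpm. Fluorescence (ex 444/em 480 nm) was read every 30 min, with buffer baseline correction and 5 replicates. Value: mean time to a detectable fluorescence increase.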

lean rats = test: Rat acute food intake study; format: in vivo, Sprague Dawley rats; conditions: 20 nmol/kg subcutaneously
Experimental: Male Sprague Dawley rats were obtained from Taconic Denmark, ApS at approximately 7 weeks of age. . . . Rats were implanted with a microchip for identification, housed 4/cage with enrichment, free access to food and water, and allowed one week acclimatisation while non-invasive characterization was performed. Rats were on a 12:12 light:dark cycle that switches at 1 pm:1 am. Food intake was monitored via the HM2 system (Lafayette Instrument) that allows for monitoring in a home cage. As each rat enters an access tunnel to feed, an IR beam is broken, and the implanted microchip is read. Resulting changes to food weight is then assigned to the specific animal. Social order has shown no impact to overall feeding patterns and amounts.
Rats were sorted into groups based on Day-1 body weight and 24-hour accumulated food intake (n=7 per group). On Day 0 rats were weighed, then fasted for 6 hours. Thirty (30) minutes prior to the reintroduction of food, rats were dosed subcutaneously (5 ml/kg) with 20 nmol/kg of test compound or 60 nmol/kg peptide 1 (pramlintide) diluted in an appropriate vehicle, after which food was returned, and lights went out. Automated food intake was monitored for the following 3 days, and rats were weighed once per day.
Food intake per rat was batched into 1-hour intervals and integrated into Gubra's GubraView data management system. Discrete food intake data was exported into MS Excel from which cumulative food intake data was generated. Cumulative food intake data was then transposed into GraphPad Prism (v8.0.1) for analysis of dark period feeding

With `CC[C@H](C)[C@H](NC(=O)[C@@H]1CCCN1C(=O)CNC(=O)[C@](C)(Cc1ccccc1)NC(=O)[C@H](CC(N)=O)NC(=O)[C@H](CC(N)=O)NC(=O)[C@H](CO)NC(=O)[C@H](CO)NC(=O)[C@H](Cc1c[nH]cn1)NC(=O)[C@H](CCCNC(=N)N)NC(=O)[C@H](CC(C)C)NC(=O)[C@H](Cc1ccccc1)NC(=O)[C@H](CCC(=O)O)NC(=O)[C@H](C)NC(=O)[C@H](CC(C)C)NC(=O)[C@H](CCCNC(=N)N)NC(=O)[C@H](CCC(N)=O)NC(=O)[C@@H](NC(=O)[C@H](C)NC(=O)[C@@H]1CSSC[C@H](NC(=O)[C@H](CCCCN)NC(=O)[C@@H](N)CCCCNC(=O)CC[C@H](NC(=O)CCCCCCCCCCCCCCCCC(=O)O)C(=O)O)C(=O)N[C@@H](CC(N)=O)C(=O)N[C@@H]([C@@H](C)O)C(=O)N[C@@H](C)C(=O)N[C@@H]([C@@H](C)O)C(=O)N1)[C@@H](C)O)C(=O)N[C@@H](CC(C)C)C(=O)N1CCC[C@H]1C(=O)N1CCC[C@H]1C(=O)N[C@H](C(=O)N[C@@H](CC(N)=O)C(=O)N[C@H](C(=O)NCC(=O)N[C@@H](CO)C(=O)N[C@@H](CC(N)=O)C(=O)N[C@H](C(=O)N[C@@H](Cc1ccc(O)cc1)C(N)=O)[C@@H](C)O)C(C)C)[C@@H](C)O` [Peptide 12, K(γE-C18diacid)K[CNTATC]ATQRLAEFLRHSSNN(αMePhe)GPILPPTNVGSNTY-amide] (H-K([γGlu-C18 diacid])KCNTATCATQRLAEFLRHSSNN[αMeF]GPILPPTNVGSNTY-NH2; disulfide 3-8; N-terminus assumed) the “Time taken to detect increase in fluorescence intensity” value (“Time taken to detect increase” below) [1] was greater than 144 h, the “Cummulative food intake (% vehicle treated intake) At 12 h” value (lean rats) was 9.4 % vehicle treated intake and the “Cummulative food intake (% vehicle treated intake) At 24 h” value (lean rats; at 24 h) was 7.5 % vehicle treated intake.

In the case of `CC[C@H](C)[C@H](NC(=O)[C@@H]1CCCN1C(=O)CNC(=O)[C@](C)(Cc1ccccc1)NC(=O)[C@H](CC(N)=O)NC(=O)[C@H](CC(N)=O)NC(=O)[C@H](CO)NC(=O)[C@H](CO)NC(=O)[C@H](Cc1c[nH]cn1)NC(=O)[C@H](CCCNC(=N)N)NC(=O)[C@H](CC(C)C)NC(=O)[C@H](Cc1ccccc1)NC(=O)[C@H](CC(N)=O)NC(=O)[C@H](C)NC(=O)[C@H](CC(C)C)NC(=O)[C@H](CCCNC(=N)N)NC(=O)[C@H](CCC(N)=O)NC(=O)[C@@H](NC(=O)[C@H](C)NC(=O)[C@@H]1CSSC[C@H](NC(=O)[C@H](CCCCN)NC(=O)[C@@H](N)CCCCNC(=O)CC[C@H](NC(=O)CCCCCCCCCCCCCCCCC(=O)O)C(=O)O)C(=O)N[C@@H](CC(N)=O)C(=O)N[C@@H]([C@@H](C)O)C(=O)N[C@@H](C)C(=O)N[C@@H]([C@@H](C)O)C(=O)N1)[C@@H](C)O)C(=O)N[C@@H](CC(C)C)C(=O)N1CCC[C@H]1C(=O)N1CCC[C@H]1C(=O)N[C@H](C(=O)N[C@@H](CCC(=O)O)C(=O)N[C@H](C(=O)NCC(=O)N[C@@H](CO)C(=O)N[C@@H](CC(N)=O)C(=O)N[C@H](C(=O)N[C@@H](Cc1ccc(O)cc1)C(N)=O)[C@@H](C)O)C(C)C)[C@@H](C)O` [Peptide 15, K(γE-C18diacid)K[CNTATC]ATQRLANFLRHSSNN(αMePhe)GPILPPTEVGSNTY-amide] (H-K([γGlu-C18 diacid])KCNTATCATQRLANFLRHSSNN[αMeF]GPILPPTEVGSNTY-NH2; disulfide 3-8; N-terminus assumed), the “Time taken to detect increase” value [1] is reported as greater than 144 h and the “Cummulative food intake (% vehicle treated intake) At 48 h” value (lean rats) is reported as 51 % vehicle treated intake.

With `CC[C@H](C)[C@H](NC(=O)[C@@H]1CCCN1C(=O)CNC(=O)[C@](C)(Cc1ccccc1)NC(=O)[C@H](CC(N)=O)NC(=O)[C@H](CC(N)=O)NC(=O)[C@H](CO)NC(=O)[C@H](CO)NC(=O)[C@H](Cc1c[nH]cn1)NC(=O)[C@H](CCCNC(=N)N)NC(=O)[C@H](CC(C)C)NC(=O)[C@H](Cc1ccccc1)NC(=O)[C@H](CC(N)=O)NC(=O)[C@H](C)NC(=O)[C@H](CC(C)C)NC(=O)[C@H](CCCNC(=N)N)NC(=O)[C@H](CCC(N)=O)NC(=O)[C@@H](NC(=O)[C@H](C)NC(=O)[C@@H]1CSSC[C@H](NC(=O)[C@@H](N)CCCCNC(=O)CC[C@H](NC(=O)CC[C@H](NC(=O)CCCCCCCCCCCCCCCCC(=O)O)C(=O)O)C(=O)O)C(=O)N[C@@H](CC(N)=O)C(=O)N[C@@H]([C@@H](C)O)C(=O)N[C@@H](C)C(=O)N[C@@H]([C@@H](C)O)C(=O)N1)[C@@H](C)O)C(=O)N[C@@H](CC(C)C)C(=O)N1CCC[C@H]1C(=O)N1CCC[C@H]1C(=O)N[C@H](C(=O)N[C@@H](CC(N)=O)C(=O)N[C@H](C(=O)NCC(=O)N[C@@H](CO)C(=O)N[C@@H](CC(N)=O)C(=O)N[C@H](C(=O)N[C@@H](Cc1ccc(O)cc1)C(N)=O)[C@@H](C)O)C(C)C)[C@@H](C)O` [Peptide 20, K(γE-γE-C18diacid)[CNTATC]ATQRLANFLRHSSNN(αMePhe)GPILPPTNVGSNTY-amide] (H-K([γGlu-γGlu-C18 diacid])CNTATCATQRLANFLRHSSNN[αMeF]GPILPPTNVGSNTY-NH2; disulfide 2-7; N-terminus assumed) the “Time taken to detect increase” value [1] was greater than 144 h and the “Cummulative food intake (% vehicle treated intake) At 12 h” value (lean rats) was 27 % vehicle treated intake.

In the case of `CC[C@H](C)[C@H](NC(=O)[C@@H]1CCCN1C(=O)CNC(=O)[C@H](Cc1ccccc1)NC(=O)[C@H](CC(N)=O)NC(=O)[C@H](CC(N)=O)NC(=O)[C@H](CO)NC(=O)[C@H](CO)NC(=O)[C@H](Cc1c[nH]cn1)NC(=O)C(C)(C)NC(=O)[C@H](CC(C)C)NC(=O)[C@H](Cc1ccccc1)NC(=O)[C@H](CC(N)=O)NC(=O)[C@H](C)NC(=O)[C@H](CC(C)C)NC(=O)[C@H](CCCNC(=N)N)NC(=O)[C@H](CCC(N)=O)NC(=O)[C@@H](NC(=O)[C@H](C)NC(=O)[C@@H]1CSSC[C@H](NC(=O)[C@H](CCCCN)NC(=O)[C@@H](N)CCCCNC(=O)CC[C@H](NC(=O)CCCCCCCCCCCCCCCCC(=O)O)C(=O)O)C(=O)N[C@@H](CC(N)=O)C(=O)N[C@@H]([C@@H](C)O)C(=O)N[C@@H](C)C(=O)N[C@@H]([C@@H](C)O)C(=O)N1)[C@@H](C)O)C(=O)N[C@@H](CC(C)C)C(=O)N1CCC[C@H]1C(=O)N1CCC[C@H]1C(=O)N[C@H](C(=O)N[C@@H](CC(N)=O)C(=O)N[C@H](C(=O)NCC(=O)N[C@@H](CO)C(=O)N[C@@H](CC(N)=O)C(=O)N[C@H](C(=O)N[C@@H](Cc1ccc(O)cc1)C(N)=O)[C@@H](C)O)C(C)C)[C@@H](C)O` [Peptide 129] (H-K([γGlu-C18 diacid])KCNTATCATQRLANFL[Aib]HSSNNFGPILPPTNVGSNTY-NH2; disulfide 3-8; N-terminus assumed), the “Time taken to detect increase” value [1] is reported as greater than 144 h, the “Cummulative food intake (% vehicle treated intake) At 12 h” value (lean rats) is reported as 29 % vehicle treated intake and the “Cummulative food intake (% vehicle treated intake) At 48 h” value (lean rats) is reported as 51 % vehicle treated intake.
